Key:
[1] = molecular target: Galectin-3 (Homo sapiens, UniProt P17931); assay: (§1) Fluorescence Polarization-Based Assay: Compounds 7, 15-19, and 22 were evaluated for their efficiency in inhibiting galectin-1 and galectin-3 in a known fluorescence polarization-based assay (Sörme et al., 2003a, 2004). All compounds were potent inhibitors of galectin-1 and galectin-3 with dissociation constant in the low μM or nM range. This evidences that a properly structured cyclohexane can mimic the subsite D-binding saccharide moiety, e.g. N-acetylglucosamine in the disaccharide N-acetyllactosamine.
[2] = molecular target: Galectin-1 (Homo sapiens, UniProt P09382); assay: as §1
Galectin-1, sequence (P09382 whole entry): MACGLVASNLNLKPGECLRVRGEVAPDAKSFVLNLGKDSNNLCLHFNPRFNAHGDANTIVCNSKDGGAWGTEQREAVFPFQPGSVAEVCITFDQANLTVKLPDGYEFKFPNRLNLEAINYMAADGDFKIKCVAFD

Galectin-3, sequence (P17931 whole entry): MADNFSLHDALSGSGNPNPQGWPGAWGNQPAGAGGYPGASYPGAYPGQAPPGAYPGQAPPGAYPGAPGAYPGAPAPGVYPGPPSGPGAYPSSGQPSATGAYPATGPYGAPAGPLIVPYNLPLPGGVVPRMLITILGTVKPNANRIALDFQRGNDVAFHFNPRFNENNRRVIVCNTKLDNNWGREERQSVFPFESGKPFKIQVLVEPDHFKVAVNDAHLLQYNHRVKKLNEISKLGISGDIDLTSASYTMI

- Kd [1]: 59 µM
- Kd [2]: 65 µM
Structure (SMILES): CO[C@@H]1OC(CO)[C@@H](O[C@@H]2OC(CO)[C@H](O)[C@H](O)C2O)[C@H](O)C1NC(C)=O (some centres not stated)

Reference: ChEMBL document CHEMBL3638846, “Galactoside inhibitors of galectins” (2014)
